Marks after values point to notes of the source that are not given here. Peptide text beside a SMILES is read from it.
Tests used:
[1] = test system: bleomycine lung fibrosis in rats; experiment: Chronic fibrosing inflammatory process (bleomycine lung fibrosis) in rats; format: in vivo, rat; settings: for Body weight / Relative lungs weight / Ventricular index, right ven./left ven. × 100%: 0,2 μg/kg intraperitoneally; for Blood large CIC / Blood medium CIC: blood serum
Description: The experiment was carried out on 120 white mongrel rats weighing 130-160 g. The animals were divided at random into 3 groups, 40 animals in each. Then the animals were subjected to a thrice-repeated intratracheal administration of bleomycine solution (at a rate of 10.0 mg per kg of body weight) with 2 weeks interval. The tetrapeptide was administered intraperitoneally in the dose of […] of body weight in sterile 0,9% NaCl solution in the course of 7 days beginning from the 5h day after each bleomycine installation.
10 animals of each group were excluded from the experiment by the method of cervical dislocation on the 15, 30, 45 and 60 days after experiment onset.
In each period there was conducted broncho-alveolar lavage fluid (BALF) test in order to estimate its cellular content, and alveolar macrophages phagocytic activity, production of superoxide-anion and total free radical production by BALF cells. In the blood and BALF there were estimated the number of circulating immune complexes (CIC). After the last bleomycin administration there was conducted lung examination.

white mongrel male mice = experiment: Acute toxicity, single intramuscular injection; format: in vivo, mouse; settings: dose exceeding the therapeutic one 5000 times
Text: (§1) The general toxic effect of tetrapeptide was studied in compliance with “The manual of Experimental (Pre-Clinical) Study of New Pharmacological Substances” (2000): acute toxicity was studied in conditions of tetrapeptide single administration, subacute and chronic toxicity were investigated in conditions of long tetrapeptide administration.
Acute toxicity was investigated on 60 white mongrel male mice weighing 20-23 g. The animals were randomized to 6 equal groups. They were intramuscularly injected with the tetrapeptide once in the doses of 1 mg/kg, 2 mg/kg, 3 mg/kg, 4 mg/kg, 5 mg/kg in 0.25 ml of natural saline solution. The control animals received the same amount of natural saline solution (0.9%).

[2] = test system: lung tissue explants of mature Wistar rats; experiment: Growth of lung organotypical culture explants; format: cell-based, rat; settings: for SI, % compared to the control: 3 days of incubation
Description: Lung tissue explants of mature Wistar rats were cultivated in petri dishes with collagen bottom cover. The nutritious medium was composed of 35% Eagle's medium, 35% Hanx solution, 25% calf fetal serum and 5% of chicken embryonic extract with added glucose, insulin, gentamycin and glutamin. Ala-Glu-Asp-Leu (SEQ ID NO:1) tetrapeptide was added into the cultural medium in fixed concentrations, from 0,01 to 20,0 ng per ml of nutritious medium. The same amount of natural saline solution was added to the control explants. After 3 days of incubation at the temperature of 37° C. there was assessed an extension of explants' area using phase contrast microscope. Biological activity of the preparation was evaluated by the change of square index (SI) of the explants cultivated in the medium containing the peptide, compared to the control.

[3] = test system: sublethal hyperoxic lung injury in rats; experiment: Sublethal hyperoxic lung injury in rats; format: in vivo, rat
Description: The experiment was conducted on 96 white mongrel rats weighing 200-230 g. The animals were divided into three groups: 8 intact animals, 48 control and 40 experimental animals. The animals were exposed to oxygenation by 100% oxygen during 60 hours in the running mode by normal pressure in chamber with oxygen expenditure, providing 8-10 full changes of the gas medium in one hour. Tetrapeptide administration was set out on the 3rd day of being in the normal atmosphere. Experimental animals were administered with the tetrapeptide (intraperitoneal administration in the dose of 0,2 μg/kg of body weight, dissolved in 0.9% sodium chloride solution (natural saline), 10 injections, every other day). […] There were conducted biometrical studies, estimation of BALF cytogram and AM phagocytic activity. BALF cellular content was estimated by coloring of the precipitated cells on the glass following the Leishman-Romanowsky method.

[4] = test system: acute bacterial lung injury (Staphilococcus aureus 209) in rats; experiment: Acute inflammation model, bacterial lung injury in rats (BALF cytogram, AM phagocytic activity); format: in vivo, rat
Description: The study was conducted on 120 white mongrel rats with average body weight 200-230 g. The animals were divided at random into 3 groups: 10 (intact), 60 (control) and 50 (experimental). In order to infect the animals there was used twenty-four-hours' culture of Staphilococcus aureus 209, which is tropic to rodents pulmonic tissue. There was also used a cellular suspension 5×10^6 cl/ml with Freind adjuvant (25% of total volume). Before infecting the animals were exposed to a supercooling at temperature −20° C. for 1 hour. Then the animals were infected using light thiopental narcosis (8 mg/100g of body weight) in sterile box. Injections of tetrapeptide were started in 2 days after infecting and were conducted for 7 days (daily, intraperitoneally in dose of 0,2 μg/kg). Control animals were administered with 0.9% NaCl solution. The animals were excluded from the trial on the 1, 3, 6, 10, […] and 20th days by the method of cervical dislocation. In each period there was conducted BAFL testing in order to estimate its cellular content and AM phagocytic activity, superoxid-anion (SA) production and total free radical production by BAFL cells. On the 1 and the 6th days of the study there was conducted lung morphological examination.

male guinea-pigs = settings: guinea pig, in vivo
Text: as §1
The tetrapeptide was investigated for chronic toxicity for 6 months, taking into consideration the recommended period of administration, on 100 male guinea-pigs weighing 300-350 g. The animals of the experimental groups were intramuscularly injected with the tetrapeptide in the doses 1 μg/kg, 0,1 mg/kg, 1 mg/kg in 0,5 ml of natural saline solution, once a day for 6 months. The animals of the control group were administered with natural saline solution in the same amount.
These animals were exposed to the assessment of the amount of erythrocytes, hemoglobin, reticulocytes, thrombocytes, leucocytes, leukocytic formula, speed of erythrocytes sedimentation (SES), erythrocytes resistance in peripheral blood. Together with this there was measured the total protein content in the blood serum according to the method of Lowry, potassium and sodium content were measured according to the method of plasma spectrophotometry. On completion of the experiment the animals were subjected to a pathomorphological examination to assess the state of brain and spinal marrow, cerebrospinal ganglia, thyroid gland, adrenal glands, testes, pituitary body, heart, lungs, aorta, liver, kidneys, urinary bladder, pancreas, stomach, small intestine, large intestine, thymus, spleen, lymph nodes, bone marrow.

white mongrel male rats = experiment: Subacute toxicity, 90 days intramuscular; format: in vivo, rat; settings: long term administration, doses 100-1000 times exceeding the therapeutic one
Text: as §1
Subacute toxicity of the tetrapeptide was investigated on 60 white mongrel male rats weighing 150-250g. The animals of the experimental groups were exposed to intramuscular injection of the tetrapeptide in the doses of 1 μg/kg, 0,1 mg/kg, 1 mg/kg in 0,5 ml of natural saline solution, once a day for 90 days. The animals of the control group were administered with natural saline solution in the same amount. Before the onset of tetrapeptide administration in the 30th, 60th and 90th day the animals were exposed to an examination of the morphological composition and characteristics of the peripheral blood. On the completion of the experiment there were studied biochemical and coagulological blood indices.

[5] = day 3, 0,2 μg/kg intraperitoneally
[6] = day 6, 0,2 μg/kg intraperitoneally
[7] = day 10, 0,2 μg/kg intraperitoneally
[8] = day 15, 0,2 μg/kg intraperitoneally
[9] = day 20, 0,2 μg/kg intraperitoneally
[10] = in words, 0,2 μg/kg intraperitoneally

CC(C)C[C@H](NC(=O)[C@H](CC(=O)O)NC(=O)[C@H](CCC(=O)O)NC(=O)[C@H](C)N)C(=O)O [Tetrapeptide, L-alanyl-L-glutamyl-L-aspartyl-L-leucine] (H-AEDL-OH)
number of lymphocytes in BAFL ([1]; 30th day): 1,75±0,45 ×10^6 cells/lungs
AM phagocytic activity, phagocytic index ([1]; 45th day): 75,6±4,5
AM phagocytic activity, phagocytic index ([1]; 60th day): 78,6±3,2
number of lymphocytes in BAFL ([1]; 60th day): 1,11±0,15 ×10^6 cells/lungs
Body weight ([1]; day 15): 151.6 ± 5.6 g
Relative lungs weight ([1]; day 15): 11.3 ± 0.6 mg/g of body weight
Ventricular index, right ven./left ven. × 100% ([1]; day 15): 34.2 ± 1.8+ %
BAFL large CIC ([1]; day 15): 42.6 ± 13.1 units
BAFL medium CIC ([1]; day 15): 37.6 ± 7.6 units
Blood large CIC ([1]; day 15): 47.2 ± 12.3 units
Blood medium CIC ([1]; day 15): 113.4 ± 11.6+ units
Body weight ([1]; day 30): 176.8 ± 5.8 g
Relative lungs weight ([1]; day 30): 12.8 ± 0.4 mg/g of body weight
Ventricular index, right ven./left ven. × 100% ([1]; day 30): 37.2 ± 1.5*+ %
BAFL large CIC ([1]; day 30): 52.3 ± 8.3*+ units
BAFL medium CIC ([1]; day 30): 72.3 ± 8.1*+ units
Blood large CIC ([1]; day 30): 85.9 ± 12.3*+ units
Blood medium CIC ([1]; day 30): 187.6 ± 20.4*+ units
Body weight ([1]; day 45): 195.3 ± 6.5+ g
Relative lungs weight ([1]; day 45): 11.5 ± 0.3*+ mg/g of body weight
Ventricular index, right ven./left ven. × 100% ([1]; day 45): 42.3 ± 2.1*+ %
BAFL large CIC ([1]; day 45): 76.3 ± 8.3*+ units
BAFL medium CIC ([1]; day 45): 79.4 ± 5.4*+ units
Blood large CIC ([1]; day 45): 135.2 ± 12.3*+ units
Blood medium CIC ([1]; day 45): 208.7 ± 12.5*+ units
Body weight ([1]; day 60): 234 ± 9.3+ g
Relative lungs weight ([1]; day 60): 13.4 ± 0.5*+ mg/g of body weight
Ventricular index, right ven./left ven. × 100% ([1]; day 60): 46.6 ± 1.4*+ %
Ventricular index, right ven./left ven. × 100% ([1]; day 60, listed as tetrapeptide): 46,6±1,4%
BAFL large CIC ([1]; day 60): 53.2 ± 9.4+ units
BAFL medium CIC ([1]; day 60): 41.8 ± 6.7+ units
Blood large CIC ([1]; day 60): 81.3 ± 11.3*+ units
Blood medium CIC ([1]; day 60): 159.4 ± 12.8+ units
basal superoxid-anion production in response to respiratory explosion stimulators ([1]; in words): decrease
lung morphologic changes as compared to control animals ([1]; in words, after the 3rd bleomycine installation): reliably less pronounced
acute toxicity, toxic reactions (white mongrel male mice): does not cause any toxic reactions
SI, % compared to the control ([2]; 0.01 ng/ml): 2%
SI, % compared to the control ([2]; 0.1 ng/ml): 14%
SI, % compared to the control ([2]; 0.5 ng/ml): 9%
SI, % compared to the control ([2]; 1.0 ng/ml): 22* %
SI, % compared to the control ([2]; 2.0 ng/ml): 53* %
SI, % compared to the control ([2]; 10.0 ng/ml): 25* %
SI, % compared to the control ([2]; 20.0 ng/ml): 9%
growth of organotypic lung culture explants ([2]; in words, concentrations from 1,0 to 10,0 ng/ml): reliably stimulates
Body weight ([3]; 0,2 μg/kg intraperitoneally, 10 injections, day not given): 228 ± 6+ g
Phagocytic activity of AM, Phagocytic index ([3]; day 10): 50.8 ± 2.3+
Phagocytic activity of AM, Phagocytic number ([3]; day 10): 5.78 ± 0.42*+
Phagocytic activity of AM, Phagocytic index ([3]; day 10, listed as tetrapeptide): 50,8±2,3
Phagocytic activity of AM, Phagocytic index ([3]; day 20): 45.8 ± 2.6*+
Phagocytic activity of AM, Phagocytic number ([3]; day 20): 3.35 ± 0.35+
Phagocytic activity of AM, Phagocytic index ([3]; day 20, listed as tetrapeptide): 45,5±2,6
Phagocytic activity of AM, Phagocytic index ([3]; day 30): 42.7 ± 2.5
Phagocytic activity of AM, Phagocytic number ([3]; day 30): 2.83 ± 0.36
Phagocytic activity of AM, Phagocytic index ([3]; day 40): 40.3 ± 2.3
Phagocytic activity of AM, Phagocytic number ([3]; day 40): 3.45 ± 0.23
Phagocytic activity of AM, Phagocytic index ([3]; day 50): 38.5 ± 2.3
Phagocytic activity of AM, Phagocytic number ([3]; day 50): 3.21 ± 0.24
pathomorphological changes manifestation (interstitial fibrosis, atelectasis foci, cellular infiltration) ([3]; in words): decrease
BAFL cytogram, Lymphocytes [4, 5]: 1.68 ± 0.16 ×10^6 cells/lungs
BAFL cytogram, Macrophages [4, 5]: 29.7 ± 2.8*+ ×10^6 cells/lungs
BAFL cytogram, Neutrophiles [4, 5]: 6.98 ± 1.48*+ ×10^6 cells/lungs
Phagocytic index (alveolar macrophages) [4, 5]: 52.4 ± 2.9*+
Phagocytic number (alveolar macrophages) [4, 5]: 5.83 ± 0.37*+
BAFL cytogram, Lymphocytes [4, 6]: 0.86 ± 0.23 ×10^6 cells/lungs
BAFL cytogram, Macrophages [4, 6]: 24.9 ± 1.2*+ ×10^6 cells/lungs
BAFL cytogram, Neutrophiles [4, 6]: 0.52 ± 0.18 ×10^6 cells/lungs
Phagocytic index (alveolar macrophages) [4, 6]: 41.5 ± 3.1+
Phagocytic number (alveolar macrophages) [4, 6]: 4.98 ± 0.28*+
BAFL cytogram, Lymphocytes [4, 7]: 0.59 ± 0.28 ×10^6 cells/lungs
BAFL cytogram, Macrophages [4, 7]: 19.2 ± 2.8*+ ×10^6 cells/lungs
BAFL cytogram, Neutrophiles [4, 7]: 0.31 ± 0.18 ×10^6 cells/lungs
Phagocytic index (alveolar macrophages) [4, 7]: 49.2 ± 2.8+
Phagocytic number (alveolar macrophages) [4, 7]: 2.98 ± 0.32+
BAFL cytogram, Lymphocytes [4, 8]: 0.79 ± 0.20 ×10^6 cells/lungs
BAFL cytogram, Macrophages [4, 8]: 16.3 ± 2.8 ×10^6 cells/lungs
BAFL cytogram, Neutrophiles [4, 8]: 0.21 ± 0.16 ×10^6 cells/lungs
Phagocytic index (alveolar macrophages) [4, 8]: 55.9 ± 4.2
Phagocytic number (alveolar macrophages) [4, 8]: 3.74 ± 0.25
BAFL cytogram, Lymphocytes [4, 9]: 0.56 ± 0.17 ×10^6 cells/lungs
BAFL cytogram, Macrophages [4, 9]: 14.6 ± 2.1 ×10^6 cells/lungs
BAFL cytogram, Neutrophiles [4, 9]: 0.25 ± 0.11 ×10^6 cells/lungs
Phagocytic index (alveolar macrophages) [4, 9]: 49.3 ± 3.6
Phagocytic number (alveolar macrophages) [4, 9]: 3.68 ± 0.31
basal and zymosan-stimulated production of SA (superoxid-anion) by AM [4, 10]: reliably increases
normalization of free radical production of BALF cells [4, 10]: more rapid normalization
processes of lung tissue reparation ([4]; in words, dose of 0,2 μg/kg of body weight): speeding-up
chronic toxicity, side-effects (male guinea-pigs): does not reveal any side-effects
effect on SES, erythrocytes resistance and biochemical indices of blood serum (male guinea-pigs): weren't revealed a reliable effect
number of leucocytes (blood morphological content) (male guinea-pigs): increase
subacute toxicity, side-effects (white mongrel male rats): does not reveal any side-effects
